Test: Transdermal delivery of melatonin: plasma level of melatonin after applying composition to skin of a subject
Conditions: human, plasma, topical, Plasma level of melatonin; for concentration at 1 h: 1 hr after transdermal administration; for concentration at 2 h: 2 hr after transdermal administration; for concentration at 4 h: 4 hr after transdermal administration; for concentration at 8 h: 8 hr after transdermal administration; for concentration at 0 h: 0 hr after transdermal administration
[1] = 3 mg, salt of tryptophan isopropyl ester, A− = Cl^−, 247.52 mM, 0.30 mL applied
[2] = 3 mg, salt of tryptophan isopropyl ester, A− = F^−, 262.85 mM, 0.30 mL applied
[3] = 3 mg, salt of tryptophan isopropyl ester, A− = I^−, 187.04 mM, 0.30 mL applied
[4] = 3 mg, salt of tryptophan isopropyl ester, A− = Lactate ion, 208.11 mM, 0.30 mL applied
[5] = 0.3 mL of 1% melatonin in water, Tryptophan isopropyl ester hydrochloride 247.52 mM, 0.3 mL applied to skin
[6] = 0.3 mL of 1% melatonin in water, salt of tyrosine isopropyl ester, A− = Benzoate ion, 202.65 mM, 0.30 mL applied
[7] = 0.3 mL of 1% melatonin in water, salt of tyrosine isopropyl ester, A− = Lactate ion, 221.97 mM, 0.30 mL applied
[8] = 2 mL of […] melatonin suspension in water, Table 21 control, A− N/A, helper esters 0 mM, 2.0 mL applied
[9] = 2 mL of […] melatonin suspension, Helper esters: None (0 mM), 2.0 mL applied to skin
[10] = 2-(Dibutylamino)ethyl 2-acetoxybenzoate hydrochloride 188.23 mM, 0.375 mL applied to skin
[11] = 2-(Diethylamino)ethyl 2-acetoxybenzoate hydrochloride 221.69 mM, 0.375 mL applied to skin
[12] = 3-(Diethylamino)propyl 2-acetoxybenzoate hydrochloride 212.24 mM, 0.375 mL applied to skin
[13] = 6-(Dimethylamino)hexyl 2-acetoxybenzoate hydrochloride 203.56 mM, 0.375 mL applied to skin
[14] = Proline hexyl ester hydrochloride 296.94 mM, 0.60 mL applied to skin
[15] = Proline isopropyl ester hydrochloride 361.41 mM, 0.60 mL applied to skin
[16] = Proline methyl ester hydrochloride 422.66 mM, 0.60 mL applied to skin
[17] = salt of tryptophan isopropyl ester, A− = Lactate ion, 208.11 mM, 0.30 mL applied
[18] = salt of tyrosine isopropyl ester, A− = AcO^−, 245.0 mM, 0.30 mL applied
[19] = salt of tyrosine isopropyl ester, A− = Benzoate ion, 202.65 mM, 0.30 mL applied
[20] = salt of tyrosine isopropyl ester, A− = Br^−, 230.16 mM, 0.30 mL applied
[21] = salt of tyrosine isopropyl ester, A− = Citrate ion, 168.49 mM, 0.30 mL applied
[22] = salt of tyrosine isopropyl ester, A− = Cl^−, 269.51 mM, 0.30 mL applied
[23] = salt of tyrosine isopropyl ester, A− = F^−, 287.91 mM, 0.30 mL applied
[24] = salt of tyrosine isopropyl ester, A− = I^−, 199.43 mM, 0.30 mL applied

In the case of `COc1ccc2[nH]cc(CCNC(C)=O)c2c1` [Melatonin], the concentration at 1 h [1] is reported as 2.5 ng/mL, the concentration at 2 h [1] is reported as 2.8 ng/mL and the concentration at 4 h [1] is reported as 2.7 ng/mL. For the same compound, the concentration at 8 h [1] was 2.5 ng/mL, the concentration at 0 h [2] was 0 ng/mL and the concentration at 1 h [2] was 2.6 ng/mL. It also gave a concentration at 2 h [2] of 2.8 ng/mL, a concentration at 4 h [2] of 2.9 ng/mL and a concentration at 8 h [2] of 2.6 ng/mL. For the same compound, the concentration at 0 h [3] was 0 ng/mL, the concentration at 1 h [3] was 2.3 ng/mL and the concentration at 2 h [3] was 2.3 ng/mL. For the same compound, the concentration at 4 h [3] was 2.2 ng/mL, the concentration at 8 h [3] was 2.1 ng/mL and the concentration at 0 h [4] was 0 ng/mL. For the same compound, the concentration at 1 h [4] was 1.9 ng/mL, the concentration at 0 h [5] was 0 ng/mL and the concentration at 1 h [5] was 2.5 ng/mL. It also gave a concentration at 2 h [6] of 2 ng/mL, a concentration at 4 h [6] of 1.8 ng/mL and a concentration at 8 h [6] of 1.7 ng/mL. The concentration at 0 h [7] was 0 ng/mL, the concentration at 1 h [7] was 1.7 ng/mL and the concentration at 2 h [7] was 1.8 ng/mL. The concentration at 4 h [7] was 2 ng/mL, the concentration at 8 h [7] was 1.6 ng/mL and the concentration at 0 h [8] was 0 ng/mL. It also gave a concentration at 1 h [8] of 0.1 ng/mL, a concentration at 2 h [8] of 0.1 ng/mL and a concentration at 4 h [8] of 0.1 ng/mL. For the same compound, the concentration at 8 h [8] was 0.1 ng/mL, the concentration at 4 h [9] was 0.1 ng/mL and the concentration at 8 h [9] was 0.1 ng/mL. For the same compound, the concentration at 0 h [10] was 0 ng/mL, the concentration at 1 h [10] was 1.6 ng/mL and the concentration at 2 h [10] was 1.9 ng/mL. It also gave a concentration at 4 h [10] of 1.8 ng/mL, a concentration at 8 h [10] of 1.6 ng/mL and a concentration at 0 h [11] of 0 ng/mL. The concentration at 1 h [11] was 2.3 ng/mL, the concentration at 2 h [11] was 2.6 ng/mL and the concentration at 4 h [11] was 2.7 ng/mL. The concentration at 8 h [11] was 2.4 ng/mL, the concentration at 0 h [12] was 0 ng/mL and the concentration at 1 h [12] was 2.1 ng/mL. It also gave a concentration at 2 h [12] of 2.2 ng/mL, a concentration at 4 h [12] of 2.3 ng/mL and a concentration at 8 h [12] of 2.1 ng/mL. The concentration at 0 h [13] was 0 ng/mL, the concentration at 1 h [13] was 1.7 ng/mL and the concentration at 2 h [13] was 2.1 ng/mL. It also gave a concentration at 4 h [13] of 2.1 ng/mL, a concentration at 8 h [13] of 1.9 ng/mL and a concentration at 0 h [14] of 0 ng/mL. For the same compound, the concentration at 1 h [14] was 1.1 ng/mL, the concentration at 2 h [14] was 1.2 ng/mL and the concentration at 4 h [14] was 1.3 ng/mL. For the same compound, the concentration at 8 h [14] was 1.2 ng/mL, the concentration at 0 h [15] was 0 ng/mL and the concentration at 1 h [15] was 1.4 ng/mL. The concentration at 2 h [15] was 1.4 ng/mL, the concentration at 4 h [15] was 1.5 ng/mL and the concentration at 8 h [15] was 1.4 ng/mL. For the same compound, the concentration at 0 h [16] was 0 ng/mL, the concentration at 1 h [16] was 1.2 ng/mL and the concentration at 2 h [16] was 1.4 ng/mL. It also gave a concentration at 4 h [16] of 1.3 ng/mL, a concentration at 8 h [16] of 1.3 ng/mL and a concentration at 2 h [17] of 2 ng/mL. It also gave a concentration at 4 h [17] of 1.9 ng/mL, a concentration at 8 h [17] of 1.8 ng/mL and a concentration at 0 h [18] of 0 ng/mL. The concentration at 1 h [18] was 1.8 ng/mL, the concentration at 2 h [18] was 2 ng/mL and the concentration at 4 h [18] was 1.9 ng/mL. For the same compound, the concentration at 8 h [18] was 21.8 ng/mL, the concentration at 0 h [19] was 0 ng/mL and the concentration at 1 h [19] was 1.6 ng/mL. It also gave a concentration at 0 h [20] of 0 ng/mL, a concentration at 1 h [20] of 2.3 ng/mL and a concentration at 2 h [20] of 2.7 ng/mL. The concentration at 4 h [20] was 2.7 ng/mL, the concentration at 8 h [20] was 2.6 ng/mL and the concentration at 0 h [21] was 0 ng/mL. For the same compound, the concentration at 1 h [21] was 2 ng/mL, the concentration at 2 h [21] was 2.3 ng/mL and the concentration at 4 h [21] was 2.2 ng/mL. It also gave a concentration at 8 h [21] of 2 ng/mL, a concentration at 0 h [22] of 0 ng/mL and a concentration at 1 h [22] of 2.1 ng/mL. It also gave a concentration at 2 h [22] of 2.9 ng/mL, a concentration at 4 h [22] of 2.7 ng/mL and a concentration at 8 h [22] of 2.8 ng/mL. The concentration at 0 h [23] was 0 ng/mL, the concentration at 1 h [23] was 2.2 ng/mL and the concentration at 2 h [23] was 2.8 ng/mL. For the same compound, the concentration at 4 h [23] was 2.8 ng/mL, the concentration at 8 h [23] was 2.5 ng/mL and the concentration at 0 h [24] was 0 ng/mL. It also gave a concentration at 1 h [24] of 2.1 ng/mL, a concentration at 2 h [24] of 2.3 ng/mL and a concentration at 4 h [24] of 2.3 ng/mL. For the same compound, the concentration at 8 h [24] was 2.1 ng/mL.
